Reference: patent US8686150B2 (Sanofi, priority 2011, dated 2014)

Each compound was assayed against T1, human full-length recombinant PKC βII (Homo sapiens, UniProt P05771) (assay: Determination of PKC βII inhibition (Caliper mobility-shift kinase assay, Fluorescein-RFARKGSLRQKNV peptide substrate)). Settings: example compounds at a final concentration of 1.14 μM (±0.15 μM).
T1 construct: Active human full-length recombinant PKC βII; purchased Invitrogen GmbH, Darmstadt, Germany
Format: biochemical
Procedure, shortened: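 Compounds were tested at 1.14 μM final. Enzyme was activated by PS, DAG and CaCl2 in Hepes pH 7.4 with MgCl2, with substrate 3 μM and ATP 120 μM as pre-mix concentrations. After 60 min at 32 °C and an EDTA stop, Caliper separation gave fractional turnover, which was normalised to no-compound and no-enzyme controls.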

T1 sequence (P05771 1-673 isoform P05771-2): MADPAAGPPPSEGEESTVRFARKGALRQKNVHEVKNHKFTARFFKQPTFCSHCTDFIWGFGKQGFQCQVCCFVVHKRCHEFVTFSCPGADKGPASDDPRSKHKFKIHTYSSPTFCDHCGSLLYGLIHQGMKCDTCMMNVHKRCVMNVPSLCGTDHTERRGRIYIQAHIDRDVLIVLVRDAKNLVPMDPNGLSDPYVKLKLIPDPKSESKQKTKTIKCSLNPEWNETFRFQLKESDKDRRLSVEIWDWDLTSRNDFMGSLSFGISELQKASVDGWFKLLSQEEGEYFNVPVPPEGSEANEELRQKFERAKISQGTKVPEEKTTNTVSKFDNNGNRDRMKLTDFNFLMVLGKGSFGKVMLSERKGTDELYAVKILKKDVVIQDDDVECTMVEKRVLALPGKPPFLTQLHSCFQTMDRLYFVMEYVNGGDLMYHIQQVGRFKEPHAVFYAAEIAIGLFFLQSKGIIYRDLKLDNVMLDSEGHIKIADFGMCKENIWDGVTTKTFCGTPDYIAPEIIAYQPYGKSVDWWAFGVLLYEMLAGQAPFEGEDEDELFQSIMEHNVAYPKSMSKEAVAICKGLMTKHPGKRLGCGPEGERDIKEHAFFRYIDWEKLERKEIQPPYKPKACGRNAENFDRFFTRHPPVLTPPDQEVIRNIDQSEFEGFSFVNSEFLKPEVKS

Structure (SMILES)	inhibition at 1.14 µM
Cc1n[nH]c2nc(-c3ccc(O)cc3F)cc(C(=O)N3C[C@H](C)NC[C@@H]3C)c12 [Example 430, ((2S,5S)-2,5-Dimethyl-piperazin-1-yl)-[6-(2-fluoro-4-hydroxy-phenyl)-3-methyl-1H-pyrazolo[3,4-b]pyridin-4-yl]-methanone]	92%
Cc1n[nH]c2nc(-c3ccc(O)cc3F)cc(C(=O)N3CCC(N)(C(F)(F)F)C3)c12 (centres unmarked) [Example 432, (3-Amino-3-trifluoromethyl-pyrrolidin-1-yl)-[6-(2-fluoro-4-hydroxy-phenyl)-3-methyl-1H-pyrazolo[3,4-b]pyridin-4-yl]-methanone]	42%
Cc1n[nH]c2nc(-c3ccc(O)cc3F)cc(C(=O)N3CCNCC34CCCC4)c12 [Example 433, (6,9-Diaza-spiro[4.5]dec-6-yl)-[6-(2-fluoro-4-hydroxy-phenyl)-3-methyl-1H-pyrazolo[3,4-b]pyridin-4-yl]-methanone]	98%
Cc1n[nH]c2nc(-c3ccc(O)cc3F)cc(C(=O)N3CC(C)NCC3(C)C)c12 (centres unmarked) [Example 434, [6-(2-Fluoro-4-hydroxy-phenyl)-3-methyl-1H-pyrazolo[3,4-b]pyridin-4-yl]-(2,2,5-trimethyl-piperazin-1-yl)-methanone]	106%
Cc1n[nH]c2nc(-c3ccc(O)cc3F)cc(C(=O)N3CCNCC3(C)c3ccccc3)c12 (centres unmarked) [Example 435, [6-(2-Fluoro-4-hydroxy-phenyl)-3-methyl-1H-pyrazolo[3,4-b]pyridin-4-yl]-(2-methyl-2-phenyl-piperazin-1-yl)-methanone]	97%
Cc1n[nH]c2nc(-c3ccc(O)cc3F)cc(C(=O)N3CCNCC34CCC4)c12 [Example 439, (5,8-Diaza-spiro[3.5]non-5-yl)-[6-(2-fluoro-4-hydroxy-phenyl)-3-methyl-1H-pyrazolo[3,4-b]pyridin-4-yl]-methanone]	99%
Cc1n[nH]c2nc(-c3ccc(O)cc3F)cc(C(=O)NC3(c4ccccc4)CCNCC3)c12 [Example 440, 6-(2-Fluoro-4-hydroxy-phenyl)-3-methyl-1H-pyrazolo[3,4-b]pyridine-4-carboxylic acid (4-phenyl-piperidin-4-yl)-amide]	90%
CCCC1CN(C(=O)c2cc(-c3ccc(O)cc3F)nc3[nH]nc(C)c23)C(CCC)CN1 (centres unmarked) [Example 441, (2,5-Dipropyl-piperazin-1-yl)-[6-(2-fluoro-4-hydroxy-phenyl)-3-methyl-1H-pyrazolo[3,4-b]pyridin-4-yl]-methanone]	96%
Cc1n[nH]c2nc(-c3ccc(O)cc3F)cc(C(=O)N3CCN[C@H]4CCCC[C@@H]43)c12 [Example 443, [6-(2-Fluoro-4-hydroxy-phenyl)-3-methyl-1H-pyrazolo[3,4-b]pyridin-4-yl]-(4aS,8aS)-octahydro-quinoxalin-1-yl-methanone]	97%
CCC1(CC)CNC(C)(C)CN1C(=O)c1cc(-c2ccc(O)cc2F)nc2[nH]nc(C)c12 [Example 450, (2,2-Diethyl-5,5-dimethyl-piperazin-1-yl)-[6-(2-fluoro-4-hydroxy-phenyl)-3-methyl-1H-pyrazolo[3,4-b]pyridin-4-yl]-methanone]	100%
Cc1n[nH]c2nc(-c3ccc(O)cc3F)cc(C(=O)N3CC4(CCCC4)NCC3(C)C)c12 [Example 451, (8,8-Dimethyl-6,9-diaza-spiro[4.5]dec-9-yl)-[6-(2-fluoro-4-hydroxy-phenyl)-3-methyl-1H-pyrazolo[3,4-b]pyridin-4-yl]-methanone]	104%
Cc1n[nH]c2nc(-c3ccc(O)cc3)cc(C(=O)N3C[C@@H](C)NC[C@@H]3c3ccccc3)c12 [Example 458, [6-(4-Hydroxy-phenyl)-3-methyl-1H-pyrazolo[3,4-b]pyridin-4-yl]-((2S,5R)-5-methyl-2-phenyl-piperazin-1-yl)-methanone]	44%
Cc1n[nH]c2nc(-c3ccc(O)cc3)cc(C(=O)N3C[C@H](C)NC[C@H]3c3ccccc3)c12 [Example 459, [6-(4-Hydroxy-phenyl)-3-methyl-1H-pyrazolo[3,4-b]pyridin-4-yl]-((2R,5S)-5-methyl-2-phenyl-piperazin-1-yl)-methanone]	95%

Further lines, results first:

inhibition at 1.14 µM	Structure (SMILES)
97%	CC[C@H]1CNCCN1C(=O)c1cc(-c2ccc(O)cc2F)nc2[nH]nc(C)c12 [Example 431, ((S)-2-Ethyl-piperazin-1-yl)-[6-(2-fluoro-4-hydroxy-phenyl)-3-methyl-1H-pyrazolo[3,4-b]pyridin-4-yl]-methanone]
100%	CCC1(CC)CNCCN1C(=O)c1cc(-c2ccc(O)cc2F)nc2[nH]nc(C)c12 [Example 436, (2,2-Diethyl-piperazin-1-yl)-[6-(2-fluoro-4-hydroxy-phenyl)-3-methyl-1H-pyrazolo[3,4-b]pyridin-4-yl]-methanone]
99%	Cc1n[nH]c2nc(-c3ccc(O)cc3F)cc(C(=O)N3CC(C)(C)NCC34CCCC4)c12 [Example 437, (8,8-Dimethyl-6,9-diaza-spiro[4.5]dec-6-yl)-[6-(2-fluoro-4-hydroxy-phenyl)-3-methyl-1H-pyrazolo[3,4-b]pyridin-4-yl]-methanone]
98%	Cc1n[nH]c2nc(-c3ccc(O)cc3F)cc(C(=O)N3CC(C)NCC34CCCC4)c12 (centres unmarked) [Example 438, [6-(2-Fluoro-4-hydroxy-phenyl)-3-methyl-1H-pyrazolo[3,4-b]pyridin-4-yl]-(8-methyl-6,9-diaza-spiro[4.5]dec-6-yl)-methanone]
99%	Cc1n[nH]c2nc(-c3ccc(O)cc3F)cc(C(=O)N3C(C)CNCC3C)c12 (centres unmarked) [Example 444, (2,6-Dimethyl-piperazin-1-yl)-[6-(2-fluoro-4-hydroxy-phenyl)-3-methyl-1H-pyrazolo[3,4-b]pyridin-4-yl]-methanone]
99%	CCC1CN(C(=O)c2cc(-c3ccc(O)cc3F)nc3[nH]nc(C)c23)C(CC)CN1 (centres unmarked) [Example 445, (2,5-Diethyl-piperazin-1-yl)-[6-(2-fluoro-4-hydroxy-phenyl)-3-methyl-1H-pyrazolo[3,4-b]pyridin-4-yl]-methanone]
98%	CC[C@@H]1CN(C(=O)c2cc(-c3ccc(O)cc3F)nc3[nH]nc(C)c23)[C@@H](C)CN1 [Example 446, ((2S,5R)-5-Ethyl-2-methyl-piperazin-1-yl)-[6-(2-fluoro-4-hydroxy-phenyl)-3-methyl-1H-pyrazolo[3,4-b]pyridin-4-yl)-methanone]
99%	CCC[C@@H]1CN(C(=O)c2cc(-c3ccc(O)cc3F)nc3[nH]nc(C)c23)[C@@H](C)CN1 [Example 448, [6-(2-Fluoro-4-hydroxy-phenyl)-3-methyl-1H-pyrazolo[3,4-b]pyridin-4-yl]-((2S,5R)-2-methyl-5-propyl-piperazin-1-yl)-methanone]
99%	CCC1(C)CNC(C)(C)CN1C(=O)c1cc(-c2ccc(O)cc2F)nc2[nH]nc(C)c12 (centres unmarked) [Example 449, (2-Ethyl-2,5,5-trimethyl-piperazin-1-yl)-[6-(2-fluoro-4-hydroxy-phenyl)-3-methyl-1H-pyrazolo[3,4-b]pyridin-4-yl]-methanone]
83%	Cc1n[nH]c2nc(-c3ccc(O)cc3F)cc(C(=O)N3C[C@@H](C)N(Cc4ccccn4)C[C@@H]3C)c12 [Example 452, ((2S,5R)-2,5-Dimethyl-4-pyridin-2-ylmethyl-piperazin-1-yl)-[6-(2-fluoro-4-hydroxy-phenyl)-3-methyl-1H-pyrazolo[3,4-b]pyridin-4-yl]-methanone]
90%	Cc1n[nH]c2nc(-c3ccc(O)cc3F)cc(C(=O)N3C[C@@H](C)N(CC4CCNCC4)C[C@@H]3C)c12 [Example 453, ((2S,5R)-2,5-Dimethyl-4-piperidin-4-ylmethyl-piperazin-1-yl)-[6-(2-fluoro-4-hydroxy-phenyl)-3-methyl-1H-pyrazolo[3,4-b]pyridin-4-yl]-methanone]
81%	Cc1n[nH]c2nc(-c3ccc(O)cc3F)cc(C(=O)N3C[C@@H](C)N(CC4CCOCC4)C[C@@H]3C)c12 [Example 454, [(2S,5R)-2,5-Dimethyl-4-(tetra-hydro-pyran-4-yl-methyl)-piperazin-1-yl]-[6-(2-fluoro-4-hydroxy-phenyl)-3-methyl-1H-pyrazolo[3,4-b]pyridin-4-yl]-methanone]
92%	Cc1n[nH]c2nc(-c3ccc(O)cc3F)cc(C(=O)N3C[C@@H](C)N(CC4CCOC4)C[C@@H]3C)c12 (stereo partly drawn) [Example 455, [(2S,5R)-2,5-Dimethyl-4-(tetra-hydro-furan-3-ylmethyl)-piperazin-1-yl]-[6-(2-fluoro-4-hydroxy-phenyl)-3-methyl-1H-pyrazolo[3,4-b]pyridin-4-yl]-methanone]
